The test system of series [1] is B16 cells. Kind of series: Cell proliferation MTT assay. The settings on record: B16 cells in vitro, 48 h. Format: cell-based, mouse. As to the method: (§1) Cell proliferation was measured by MTT assay as previously described. The cells were seeded in a volume of 200 μL/well in 96-well plates. The next day, cells were treated with DMSO or a series of concentrations of KTC1101. After a 48-h incubation period, 20 μL of MTT (5 mg/mL) was added to each well. After further incubation for 4 h at 37 °C, the absorbance at 490 nm was measured using an iMark microplate reader (BIO-RAD, Hercules, CA, USA).
(In general: Tetrazolium assays rely on reduction of a dye to a coloured formazan, in cell work by metabolically active cells.)

Series [2] concerns S24 cells. Kind of series: Cell proliferation MTT assay. The format is cell-based, mouse. The settings on record: 48 h. As to the method:
as §1

A short description of series [3]: Acute toxicity study. The format is in vivo. The settings on record: both sexes, mouse, in vivo, oral; BALB/c mice, acute toxicity. As to the method:
(§2) All mice care and experimental protocols were approved by the Ethical Committee of Tianjin Medical University (permit number: TMUaMEC 2023036). Preliminary testing was conducted on 6 groups of BALB/c mice (half male, half female, 18–22 g), fasted but not water-deprived for 12 h, and administered different doses of KTC1101 (200 to 6400 mg/kg). […] The LD50 was calculated based on the doses causing 0% and 100% mortality in animals. Subsequent testing was done using doses determined from the preliminary study. Each dose was administered to a single animal, with a 72-h interval between dosages. The administration continued until one of the following criteria was met: (a) three consecutive animals survived; (b) a transition from survival to death occurred in 5 out of 6 consecutive animals; (c) at least four animals were tested after the first transition, with an estimated LD50 range exceeding the critical value (2.5 times). The LD50 and its confidence interval were calculated, and the maximum likelihood method was used to determine the LD50 value using the AOT425StatPgm software.

The test system of series [4] is BALB/c mice. Kind of series: Acute toxicity study. The format is in vivo. The settings on record: symbols O/X not defined. As to the method: as §2
In series [5] the test system is TMD8 tumors. As to the kind of experiment: TMD8 xenograft in NSG mice. Format: in vivo, mouse. As to the method:
(§3) BALB/c nude, NSG, and C57BL/6J mice were obtained from Tianjin Medical University. The housing temperature was controlled, ranging from 20.5–24 °C, and humidity was monitored but not controlled ranging from 30–70%. The 12-h daily light cycle was from 06:00 to 18:00. To generate a murine subcutaneous tumor model, PC3 and HSC2 cells were subcutaneously injected into the right lateral flank of 4- to 5-week-old male BALB/c nude mice. TMD8, CAL33, and S24 cells were subcutaneously injected into the right lateral flank of 4- to 5-week-old male NSG mice. When tumors reached a volume of 300–500 mm^3, they were excised, diced into 2 mm × 2 mm × 2 mm pieces, and implanted into the right flanks of BALB/c nude or NSG mice. Tumors were allowed to grow to a volume of 100 mm^3, and then the animals were randomly divided into several groups. Each group of five mice was treated with either vehicle or KTC1101 (25, 50, or 100 mg/kg, PO). Tumor size was measured every 3 d or 4 d until the endpoint. The tumor volume was calculated using the following formula: length × width × height/2. At the end of the experimental period, mice were euthanized by overdosing on pentobarbital sodium, and the tumors were removed. Tumor tissue was formalin-fixed and paraffin-embedded for histological analysis.

The subject of series [6] is S24 tumors. Kind of series: S24 tumors in NSG mice. The format is in vivo, mouse. The settings on record: 100 mg/kg daily oral gavage. As to the method:
as §3

Series [7] has as its system B16 tumor tissue gene expression. As to the kind of experiment: RNA-Seq (DEGs, GSEA, GSVA, CIBERSORT) of B16 tumors after KTC1101. Format: in vivo, mouse. The settings on record: 100 mg/kg for 3 days. The source says:
Total RNA was isolated using TRIzol reagent.
Cell-type Identification by Estimating Relative Subsets of RNA Transcripts (CIBERSORT) was used to perform a deconvolution analysis of the gene expression matrix based on the principle of linear […]. The CIBERSORT algorithm, with a reference to 511 mouse gene signatures, categorized immune cell populations into seven groups and calculated composition scores: B cells including memory, naive, and plasma cells; CD8^+ T cells including memory, naive, and activated cells; CD4^+ T cells including memory, naive, follicular, Th1, Th2, and Th17 cells; DCs including activated and immature cells; the rest being mast cells, Tregs, and monocytes.

Series [8] deals with CCL5 and CXCL10. As to the kind of experiment: qRT-PCR and ELISA of chemokines in B16 cells. The format is cell-based, mouse. The settings on record: 48 h. As to the method: qRT-PCR was performed as previously described. RNA was isolated using Trizol and used to synthesize complementary DNA (cDNA) using a cDNA Synthesis Kit (GenStar), and RT-PCR was performed with aliquots of cDNA samples mixed with SYBR Green MasterMix (Applied Biosystems). Reactions were performed in triplicate.
We examined the secreted cytokines from B16 cells under both in vitro and in vivo conditions. For in vitro-cultured B16 cells, the cells were seeded into six-well plates and treated with either DMSO or a range of KTC1101 concentrations. After 48 h, the total cell count was determined, and the cell culture supernatant was collected for further analysis. For in vivo tumor tissues, the harvested tumor tissues were homogenized. Post-centrifugation, the supernatant was collected and used for protein quantification utilizing a BCA kit. The concentrations of murine CCL5 and CXCL10 in these supernatants were then quantified using specific ELISA kits, in accordance with the manufacturer's instructions.
A general note: Quantitative PCR measures a nucleic acid by following its amplification.

The subject of series [9] is B16 tumor-bearing C57BL/6 mice. As to the kind of experiment: Toxicity and safety profiling in vivo (serum biochemistry, routine blood, H&E). The arrangement: species or system mouse. The settings on record: hematological parameters in the blood. As to the method: The B16 tumor-bearing C57BL/6 mice were divided into 4 groups randomly (n = 3 per group) and treated with vehicle, KTC1101 (100 mg/kg 3on/4off, PO), anti-PD-1 antibody (250 μg per mouse, IP), or a combination of KTC1101 and anti-PD-1 antibody. After 14 days of treatment, all mice were sacrificed. Blood samples were collected for analysis; one portion was centrifuged (3000 rpm, 4 °C) to obtain serum for biochemical parameter analysis, including alanine aminotransferase (ALT), aspartate aminotransferase (AST), creatinine (CREA), and blood urea nitrogen (BUN). The other portion was used for routine blood examination. Major organs including the heart, liver, spleen, lung, and kidney were collected, sectioned, and stained with H&E for histopathological evaluation.

In general, LD50 refers to the dose at which mortality reaches 50%. Higher therefore signals a less toxic substance.

Take `COc1cc(N)cc2c1nc(C(F)F)n2-c1nc(N2CCCOCC2)nc(N2CCOCC2)n1` [KTC1101, 2-(difluoromethyl)-4-methoxy-1-(4-morpholino-6-(1,4-oxazepan-4-yl)-1,3,5-triazin-2-yl)-1H-benzo[d]imidazol-6-amine]: in series [1], the anti-proliferative activity entry was “strong anti-proliferative activity”. In series [2], the sensitivity in vitro entry is recorded as “showed sensitivity”. Besides, in series [3], the 50% lethal dose (LD50) at 7 days worked out at 2140 mg/kg. Also, in series [4] (real dose 1750 mg/kg), the Score result is on record as “OOO”. Moreover, in series [4] (real dose 2275 mg/kg), the Score entry is listed as “XXX”. Moreover, the tumor growth entry in series [5] (100 mg/kg PO) is listed as “slowed tumor progression”. Besides, the “efficacy versus ZSTK474 and Copanlisib” value in series [5] (100 mg/kg and 125 mg/kg PO) was “marginally outperformed those of 200 mg/kg ZSTK474 orally and was comparable to 14 mg/kg Copanlisib intravenously”. The “time until tumors started to progress” value in [6] came to 10 days. Besides, the “immune-related pathways (GSEA, GSVA)” value in series [7] is “prominently upregulated”. Further, in [8], the “expression levels of CCL5 and CXCL10” value is “significantly stimulated”. In addition, in series [9], the GRAN is on record as 0.93±0.67 109L-1, the MCV was determined as 52.90 ± 8.84 fL, the PLT is reported as 745.00±220.75 109L-1 and the RBC is 6.03±2.50 1012L-1. In addition, in series [9], the RDW amounted to 17.97±3.41% and the WBC is reported as 3.67±3.06 109L-1.

For the origin of these results see paper PMC10938783, “A novel pan-PI3K inhibitor KTC1101 synergizes with anti-PD-1 therapy by targeting tumor suppression and immune activation” (Molecular Cancer, 2024).
